Assay: passive permeability, PAMPA, ADME assay (AID 1508612)
Settings: pH 7.4, 30.0 min, 50.0 µM
Compound `C[C@H]1CCC[C@H](O)CCC/C=C/c2cc(O)cc(O)c2C(=O)O1` has a Papp of 864 ×10⁻⁶ cm/s.
In the case of `CC(C)(C)C(=O)N1CCN(c2nccc(Nc3ccccc3Cl)n2)CC1`, the Papp is reported as > 1000 ×10⁻⁶ cm/s.
For `Cc1ccc(NS(=O)(=O)c2cccc(C(=O)O)c2)cc1S(=O)(=O)N1CCOCC1`, the Papp was 23.4 ×10⁻⁶ cm/s.
`O=c1cc(N2CCOCC2)oc2c1ccc1ccccc12` gave a Papp of 294 ×10⁻⁶ cm/s.
`Cc1ccc(-c2csc(NC(=O)c3ccncc3NS(=O)(=O)c3ccc(C)cc3)n2)cc1` gave a Papp of 530 ×10⁻⁶ cm/s.
Work on `CCOC(=O)c1ccc(N2C(=O)c3[nH]nc(-c4ccc(OC)cc4)c3C2c2ccc(C)cc2)cc1` (stereo not drawn) yielded a Papp of 17.7 ×10⁻⁶ cm/s.
Compound `Cc1ccc(S(=O)(=O)Nc2cnccc2C(=O)Nc2nc(-c3ccccc3F)cs2)cc1` has a Papp of 51.2 ×10⁻⁶ cm/s.
With `CCc1ccc(NC(=O)CSC2=Nc3ccccc3C3=NC(CC(=O)NCc4ccc5c(c4)OCO5)C(=O)N23)cc1` (stereo not drawn) the Papp was < 1 ×10⁻⁶ cm/s.
`COCCCNC(=O)c1cc2cc(S(=O)(=O)N(C)C)ccc2n1C` gave a Papp of 77.2 ×10⁻⁶ cm/s.
In the case of `Cc1cn2c(N)c(Cl)cc(C(=O)NCC3CCN(CC(C)C)CC3)c2n1`, the Papp is reported as 606 ×10⁻⁶ cm/s.
For `O=C(NCc1ccccc1)c1cn2cc(-c3ccccc3)sc2n1`, the Papp was > 1000 ×10⁻⁶ cm/s.
Work on `Cn1nnnc1Sc1ncnc2scc(Br)c12` yielded a Papp of 177 ×10⁻⁶ cm/s.
Compound `Fc1ccc(CNc2nc(-c3ccncc3)nc3ccccc23)cc1F` has a Papp of 569 ×10⁻⁶ cm/s.
`O=C(O)c1cccc(-n2cccc2/C=C2/NC(=O)N(c3cccc(Cl)c3)C2=O)c1` gave a Papp of 3.96 ×10⁻⁶ cm/s.
In the case of `O=C1CCCC2=C1C(c1[nH]ncc1Cl)N=C(Nc1nc3ccccc3o1)N2` (stereo not drawn), the Papp is reported as 718 ×10⁻⁶ cm/s.
`NC(=O)C1CCN(c2nccc(-c3ccc(Br)cc3)n2)CC1` gave a Papp of 360 ×10⁻⁶ cm/s.
With `CCc1ccc(OC(C)C(=O)N2CCC(c3nc4ccccc4o3)CC2)cc1` (stereo not drawn) the Papp was > 1000 ×10⁻⁶ cm/s.
In the case of `CN1Cc2c(cc(N3CCOCC3)nc2-c2ccccc2OC(F)(F)F)C1=O`, the Papp is reported as > 1000 ×10⁻⁶ cm/s.
`NC(=O)C1CCN(c2nc(-c3ccccc3F)cs2)CC1` gave a Papp of 558 ×10⁻⁶ cm/s.
With `NC(=O)N1CCCC(C(=O)N2CCCN(c3ccc(F)cc3)CC2)C1` (stereo not drawn) the Papp was 111 ×10⁻⁶ cm/s.
For `O=C([C@H](Cc1ccc(O[S+](=O)([O-])c2cccc3cnccc23)cc1)N[S+](=O)([O-])c1cccc2cnccc12)N1CCN(Cc2ccccc2)CC1`, the Papp was 399 ×10⁻⁶ cm/s.
With `O=C1Nc2ccccc2/C1=C\c1ccc(O)c(Cl)c1` the Papp was 608 ×10⁻⁶ cm/s.
For `CC(=O)c1c(C)[nH]c(C(=O)Nc2cccc([S+](=O)([O-])Nc3ccncc3)c2)c1C`, the Papp was 1.51 ×10⁻⁶ cm/s.
`O=[S+]([O-])(Nc1nccs1)c1ccc(NCc2cccc(Cl)c2)cc1` showed a Papp of 395 ×10⁻⁶ cm/s.
With `CC(C)c1ccccc1-c1ncc(F)c(NCC2CCN(c3cccnc3)CC2)n1` the Papp was > 1000 ×10⁻⁶ cm/s.
`c1coc(-c2nc3ccncc3[nH]2)c1` gave a Papp of 27.9 ×10⁻⁶ cm/s.
`COC(=O)c1ccc(Nc2nc(-c3ccncc3)nc3ccccc23)cc1OC` gave a Papp of 676 ×10⁻⁶ cm/s.
`C#Cc1ccc(NC(=O)c2cnn3c(C)cc(C)nc23)cc1` gave a Papp of 14 ×10⁻⁶ cm/s.
In the case of `Cc1nc(NCc2ccco2)nc2c1C(=O)CC(C)C2` (stereo not drawn), the Papp is reported as > 1000 ×10⁻⁶ cm/s.
For `CCOc1ccc(-c2nnc(SCC(=O)NCc3ccccc3Cl)o2)cc1`, the Papp was 5.1 ×10⁻⁶ cm/s.
In the case of `OCCn1cc(-c2cnc3nnn(Cc4ccc5ncccc5c4)c3n2)cn1`, the Papp is reported as 97.5 ×10⁻⁶ cm/s.
With `CN(C)[C@@H]1CCN(c2cccc(Nc3nn4c(=O)c5ccccc5nc4s3)c2)C1` the Papp was 125 ×10⁻⁶ cm/s.
`CCOC(=O)c1ccc(N2C(=O)c3n[nH]c(-c4cccs4)c3C2c2ccc(Cl)cc2Cl)cc1` (stereo not drawn) showed a Papp of 85.8 ×10⁻⁶ cm/s.
In the case of `CCc1ccccc1-n1c(SCC(=O)Nc2ccc(C)cc2)nc2n[nH]c(C)c2c1=N`, the Papp is reported as 95.3 ×10⁻⁶ cm/s.
For `COc1cccc(-c2nc(-c3cc4cc(OC)ccc4[nH]c3=O)no2)c1`, the Papp was > 1000 ×10⁻⁶ cm/s.
In the case of `Ic1ccccc1CNC1C2CCN(CC2)C1C(c1ccccc1)c1ccccc1` (stereo not drawn), the Papp is reported as > 1000 ×10⁻⁶ cm/s.
With `Cc1cc(C)nc(NC(=S)N2CCN(c3cc(C(F)(F)F)nc4ccccc34)CC2)c1` the Papp was > 1000 ×10⁻⁶ cm/s.
In the case of `CC(C)CCNC(=O)[C@H](CC(C)C)NC(=O)[C@H]1O[C@@H]1C(=O)O`, the Papp is reported as < 1 ×10⁻⁶ cm/s.
Work on `Oc1ccc(CNc2ccccc2C(F)(F)F)c2cccnc12` yielded a Papp of 17 ×10⁻⁶ cm/s.
`NC(=O)C1CCN(c2nc(-c3ccc(OC(F)(F)F)cc3)cs2)CC1` gave a Papp of 104 ×10⁻⁶ cm/s.
In the case of `CCc1ccc(C2N=C(N)Nc3nc4ccccc4n32)cc1` (stereo not drawn), the Papp is reported as 4.65 ×10⁻⁶ cm/s.
In the case of `CCOC(=O)N1CCN(Cc2nc3c(c(=O)n(C)c(=O)n3C)n2Cc2cccc(C)c2)CC1`, the Papp is reported as 477 ×10⁻⁶ cm/s.
For `CSc1ccccc1N1CCN(CCCCCC(=O)NC2CCCc3ccccc32)CC1` (stereo not drawn), the Papp was > 1000 ×10⁻⁶ cm/s.
For `CCN1C(=O)c2ccccc2[S@](=O)c2ccc(C(=O)NCc3ccc(C#N)cc3)cc21`, the Papp was 872 ×10⁻⁶ cm/s.
`O=C(COC(=O)CCC(=O)c1cccs1)NCc1ccco1` showed a Papp of 121 ×10⁻⁶ cm/s.
With `Cc1ccc(NC2=C(c3ccc(C(F)(F)F)cc3)C(=O)c3ccccc32)cc1F` the Papp was < 1 ×10⁻⁶ cm/s.
Work on `O=C(Nc1ccccc1)C1CC(=O)N(c2n[nH]c3cc(Br)ccc23)C1` (stereo not drawn) yielded a Papp of 1.1 ×10⁻⁶ cm/s.
Work on `O=[S+]([O-])(Nc1ccccc1)c1ccc(NCc2ccc(Cl)cc2O)cc1` yielded a Papp of 524 ×10⁻⁶ cm/s.
Compound `NC(=O)C1CCN(c2nc(-c3ccccc3N)cs2)CC1` has a Papp of 136 ×10⁻⁶ cm/s.
Work on `CC1=Nc2cc(C(=O)NCCc3ccccc3)ccc2Sc2c(C)ccc(C)c21` yielded a Papp of 359 ×10⁻⁶ cm/s.
For `COc1cc([C@@H](CC(=O)O)c2ccc(C)c(CN3C[C@@H](C)Oc4ccccc4S3(=O)=O)c2)cc2nnn(C)c12`, the Papp was 2.9 ×10⁻⁶ cm/s.
For `Cn1cc(C2=C(c3cn(CCCSC(=N)N)c4ccccc34)C(=O)NC2=O)c2ccccc21`, the Papp was 11.1 ×10⁻⁶ cm/s.
For `O=C1CCCC2=C1C(c1ncccc1Br)N=C(Nc1nc3ccccc3o1)N2` (stereo not drawn), the Papp was 371 ×10⁻⁶ cm/s.
